The results in this text go back to US20240228469A1, “PCSK9 INHIBITORS AND METHODS OF USE THEREOF” (AstraZeneca AB, priority 2022, published 2024).

By pIC50 is commonly meant the IC50 on a negative log10 scale, so that one unit is a factor of ten.

Experiment [1] addresses T1, potassium ion channel hERG (Homo sapiens, UniProt Q12809).
T1 construct: expressed in transfected cells; host or cells: Chinese hamster ovary K1 (CHO)
Put plainly: Assay 5 hERG assay (patch clamp, CHO cells over-expressing hERG). The experiment is classed as cell-based. The conditions noted are these: SyncroPatch 384PE, room temperature, geometric mean, read-out: Assay 5 (hERG Hu CHO if EPh CR-Syncro) GMean IC50. The protocol: This assay (human Ether-d-go-go-Related Gene) measures activity of the compounds at the potassium ion channel hERG (human Ether-d-go-go-Related Gene).
Experiments were performed on the SyncroPatch 384PE high throughput patch clamp platform at room temperature and medium resistance chips with 4 patch holes per site. Chinese hamster ovary K1 (CHO) cell lines over-expressing the ion channel of choice (hERG) were used in assay-ready format and kept in liquid nitrogen or were used from live culture. Cells were either thawed and diluted in HBSS or were detached from flasks and resuspended in HBSS. HBSS comprised 140 mM NaCl, 4 mM KCl, 10 mM HEPES and 5 mM Glucose (pH7.4). The internal patch clamp solution was KF 120 mM, KCl 20 mM, HEPES 10 mM, EGTA 10 mM, and 25 PM Escin (pH 7.2). After the sealing process was complete, the external solution was exchanged for external patch clamp solution comprising NaCl 80 mM, KCl 4 mM, HEPES 10 mM, CaCl2 2 mM, MgCl2 1 mM, glucose 5 mM, and NMDG 60 mM (pH 7.4). All solutions were stored at room temperature, except Escin, which was stored at 4° C. All test compounds were dispensed in greiner-bio 384 well plates and tested in a 6 point cumulative assay (final DMSO concentration 0.33%). Only wells that passed previously agreed acceptance criteria for this platform were used in this analysis (30 MegaOhm seal resistance, Z prime >0.4 and current size >0.2 nA). […]

Experiment [2] concerns the target GSK3β (Glycogen synthase kinase-3 beta) (Homo sapiens, UniProt P49841). Briefly: Assay 6 GSK3β assay (ThermoFisher Z-Lyte FRET). The experiment is classed as biochemical. The conditions noted are these: ATP Conc: 10 μM, geometric mean; read-out: Assay 6 (GSK3β FRET-Z-Lyte Cr) GMean IC50. The protocol:
This assay measures the activity of the compounds at GSK33 (Glycogen synthase kinase-3 beta).
The test compounds were screened in 1% DMSO (final) in the well. For 10 point titrations, 3-fold serial dilutions are conducted from the starting concentration of 10 PM.
Bar-coded Corning, low volume NBS, black 384-well plate • 1. 2.5 μL—4× Test Compound or 100 nL 100× plus 2.4 μL kinase buffer • 2. 5 μL—2× Peptide/Kinase Mixture • 3. 2.5 μL—4×ATP Solution • 4. 30-second plate shake • 5. 60-minute Kinase Reaction incubation at room temperature • 6. 5 μL—Development Reagent Solution • 7. 30-second plate shake • 8. 60-minute Development Reaction incubation at room temperature • 9. Read on fluorescence plate reader and analyse the data
In step 2, the 2×GSK3β (GSK3 beta)/Ser/Thr (Glycogen synthase kinase-3 beta/Serine/Threonine) 09 mixture is prepared in 50 mM HEPES (4-(2-hydroxyethyl)-1-piperazineethanesulfonic acid) pH 7.5, 0.01% BRIJ-35, 10 mM MgCl2, 1 mM EGTA (egtazic acid). The final 10 μL Kinase Reaction consists of 0.22-0.92 ng GSK3β (GSK3 beta) and 2 PM Ser/Thr 09 in 50 mM HEPES pH 7.5, 0.01% BRIJ-35, 10 mM MgCl2, 1 mM EGTA.
In step 3 the ATP Solution is diluted to a 4× working concentration in Kinase Buffer (50 mM HEPES pH 7.5, 0.01% BRIJ-35, 10 mM MgCl2, 1 mM EGTA).
In Step 6 the Development Reagent is diluted 1:512 in Development Buffer (10× Novel PKC Lipid Mix: 2 mg/mL Phosphatidyl Serine, 0.2 mg/mL DAG in 20 mM HEPES, pH 7.4, 0.3% CHAPS).
SelectScreen® Kinase Profiling Service uses XLfit from IDBS. The dose response curve is curve fit to model number 205 (sigmoidal dose-response model).

The next experiment has as its target PCSK9 (Homo sapiens, UniProt Q8NBP7, G670E/V474I). Put plainly: biochemical.

SMILES strings stand for the structures. pIC50: −log10 of the molar value.

T1 sequence (Q12809 whole entry): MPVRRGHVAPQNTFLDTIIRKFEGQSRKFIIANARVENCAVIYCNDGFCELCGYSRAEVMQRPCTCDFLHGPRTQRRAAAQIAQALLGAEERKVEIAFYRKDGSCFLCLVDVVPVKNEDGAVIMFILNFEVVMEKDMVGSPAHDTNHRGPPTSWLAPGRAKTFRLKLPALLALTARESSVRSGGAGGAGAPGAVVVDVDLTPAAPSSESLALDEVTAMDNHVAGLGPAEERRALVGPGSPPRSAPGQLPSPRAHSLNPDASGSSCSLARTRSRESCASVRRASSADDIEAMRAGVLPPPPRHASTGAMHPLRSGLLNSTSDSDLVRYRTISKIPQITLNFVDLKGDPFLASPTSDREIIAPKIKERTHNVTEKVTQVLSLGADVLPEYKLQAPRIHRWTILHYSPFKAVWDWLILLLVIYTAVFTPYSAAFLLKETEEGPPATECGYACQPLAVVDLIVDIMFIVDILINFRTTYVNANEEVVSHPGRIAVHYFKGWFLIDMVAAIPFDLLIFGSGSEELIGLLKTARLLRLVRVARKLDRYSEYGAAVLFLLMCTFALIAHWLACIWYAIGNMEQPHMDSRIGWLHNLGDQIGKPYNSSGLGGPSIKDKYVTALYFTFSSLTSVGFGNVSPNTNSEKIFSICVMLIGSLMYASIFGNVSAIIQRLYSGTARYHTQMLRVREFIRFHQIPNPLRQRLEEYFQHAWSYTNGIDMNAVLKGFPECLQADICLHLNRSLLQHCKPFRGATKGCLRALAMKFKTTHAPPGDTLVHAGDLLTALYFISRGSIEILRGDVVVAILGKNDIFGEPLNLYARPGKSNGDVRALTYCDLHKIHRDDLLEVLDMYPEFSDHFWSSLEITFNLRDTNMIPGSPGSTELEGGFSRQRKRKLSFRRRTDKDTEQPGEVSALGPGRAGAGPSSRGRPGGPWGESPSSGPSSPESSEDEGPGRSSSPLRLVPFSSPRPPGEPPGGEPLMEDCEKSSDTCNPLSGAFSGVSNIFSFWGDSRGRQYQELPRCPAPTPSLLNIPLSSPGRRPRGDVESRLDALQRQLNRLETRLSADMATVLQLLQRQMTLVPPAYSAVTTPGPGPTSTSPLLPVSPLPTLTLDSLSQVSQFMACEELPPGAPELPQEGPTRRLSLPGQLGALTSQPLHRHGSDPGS
GSK3β (Glycogen synthase kinase-3 beta), sequence (P49841 whole entry): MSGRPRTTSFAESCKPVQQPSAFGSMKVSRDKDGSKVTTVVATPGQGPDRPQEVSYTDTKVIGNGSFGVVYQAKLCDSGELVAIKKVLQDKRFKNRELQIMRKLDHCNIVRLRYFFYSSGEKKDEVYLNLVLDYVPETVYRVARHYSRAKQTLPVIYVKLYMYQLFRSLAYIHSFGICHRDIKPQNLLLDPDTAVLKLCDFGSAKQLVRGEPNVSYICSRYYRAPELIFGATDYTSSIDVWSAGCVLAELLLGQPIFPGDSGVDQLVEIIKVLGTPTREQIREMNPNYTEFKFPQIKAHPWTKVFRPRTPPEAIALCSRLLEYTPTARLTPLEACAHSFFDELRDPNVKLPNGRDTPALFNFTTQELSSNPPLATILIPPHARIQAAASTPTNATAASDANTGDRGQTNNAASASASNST
PCSK9, sequence (Q8NBP7 with tags, fused parts or gaps V474I/G670E): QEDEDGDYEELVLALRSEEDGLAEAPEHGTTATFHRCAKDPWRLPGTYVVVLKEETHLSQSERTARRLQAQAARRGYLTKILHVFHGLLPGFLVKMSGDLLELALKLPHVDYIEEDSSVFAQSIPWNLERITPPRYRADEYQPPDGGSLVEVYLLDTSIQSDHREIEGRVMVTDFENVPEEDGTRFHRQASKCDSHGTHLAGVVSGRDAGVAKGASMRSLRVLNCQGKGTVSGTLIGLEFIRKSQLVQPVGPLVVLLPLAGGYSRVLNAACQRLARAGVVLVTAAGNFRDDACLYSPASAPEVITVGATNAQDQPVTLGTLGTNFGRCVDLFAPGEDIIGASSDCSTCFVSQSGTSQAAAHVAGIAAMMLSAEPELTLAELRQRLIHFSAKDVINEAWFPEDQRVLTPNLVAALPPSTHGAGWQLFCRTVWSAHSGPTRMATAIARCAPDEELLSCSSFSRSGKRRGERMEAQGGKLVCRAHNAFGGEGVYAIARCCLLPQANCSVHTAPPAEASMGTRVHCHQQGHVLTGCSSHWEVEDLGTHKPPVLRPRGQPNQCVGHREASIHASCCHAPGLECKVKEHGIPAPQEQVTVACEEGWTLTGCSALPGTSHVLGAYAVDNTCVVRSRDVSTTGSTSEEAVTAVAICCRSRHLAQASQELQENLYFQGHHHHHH

`O=c1ccncn1-c1cnc(N[C@H]2CC[C@H](Nc3ncc(C4CC4)nn3)C2)nc1` [Example 120, 2′-(((1S,3S)-3-((6-Cyclopropyl-1,2,4-triazin-3-yl)amino)cyclopentyl)amino)-6H-[1,5′-bipyrimidin]-6-one]: the figures for the pIC50 (in experiment [1]; in experiment [2]; on PCSK9) were less than 4.40, less than 5.00 and 6.84, respectively.

With `Cc1cnc(N[C@H]2CC[C@H](Nc3ccc(-n4c(C)nc(C)c4C#N)cn3)C2)nn1` [Example 250, 2,4-Dimethyl-1-(6-(((1S,3S)-3-((6-methyl-1,2,4-triazin-3-yl)amino)cyclopentyl)amino)pyridin-3-yl)-1H-imidazole-5-carbonitrile], the results for the negative-log IC50 (pIC50) (in experiment [1]; in experiment [2]; against PCSK9) were less than 4.40, less than 5.00 and 6.97, respectively.

For the molecule `COc1c(-c2nnn[nH]2)ccc(F)c1-c1ccc(N[C@H]2CC[C@H](Nc3ncc(C4CC4)nn3)C2)nc1` [Example 169, (1S,3S)—N^1-(6-Cyclopropyl-1,2,4-triazin-3-yl)-N^3-(5-(6-fluoro-2-methoxy-3-(1H-tetrazol-5-yl)phenyl)pyridin-2-yl)cyclopentane-1,3-diamine], the negative-log IC50 (pIC50) in experiment [1] is less than 4.40; in experiment [2], 6.51; at PCSK9, 7.57.

In the case of `Cc1cnc(NCC(CCO)CNc2ccc(-n3cccc(C)c3=O)cn2)nn1` (racemic) [Example 315, rac-6′-((4-Hydroxy-2-(((6-methyl-1,2,4-triazin-3-yl)amino)methyl)butyl)amino)-3-methyl-2H-[1,3′-bipyridin]-2-one], the pIC50 is less than 4.40 in experiment [1], less than 5.00 in experiment [2] and 5.89 on PCSK9.

For `Cc1cnc(N[C@H]2CC[C@H](Nc3ccc(-n4nc(C)cc4C)cn3)C2)nn1` [Example 249], the pIC50 in experiment [1] was less than 4.40; in experiment [2], less than 5.00; on PCSK9, 7.80.

For `C#CCN(C)C(=O)c1cnc(N[C@H]2CC[C@H](Nc3ccc(-n4ccccc4=O)cn3)C2)nn1` [Example 152, N-Methyl-3-(((1S,3S)-3-((2-oxo-2H-[1,3′-bipyridin]-6′-yl)amino)cyclopentyl)amino)-N-(prop-2-yn-1-yl)-1,2,4-triazine-6-carboxamide], the results for the pIC50 (in experiment [1]; in experiment [2]; against PCSK9) were less than 4.40, less than 5.00 and 6.61, respectively.

As for `Cc1nnc(N[C@H]2CC[C@H](Nc3ccc(-n4ccccc4=O)cn3)C2)[nH]c1=O` [Example 254, 6′-(((1S,3S)-3-((6-Methyl-5-oxo-4,5-dihydro-1,2,4-triazin-3-yl)amino)cyclopentyl)amino)-2H-[1,3′-bipyridin]-2-one], the results for the pIC50 (in experiment [1]; in experiment [2]; on PCSK9) were less than 4.40, 5.21 and 6.48, respectively.

As for `Cc1cnc(N[C@H]2CC[C@H](Nc3ccc(-c4ccccn4)cn3)C2)nn1` [Example 309, (1S,3S)—N′-([2,3′-Bipyridin]-6′-yl)-N^3-(6-methyl-1,2,4-triazin-3-yl)cyclopentane-1,3-diamine], the pIC50 in experiment [1] was 4.94; in experiment [2], less than 5.00; against PCSK9, 6.27.

As for `COc1c(C(=O)O)ccc(F)c1-c1ccc(N[C@H]2CC[C@H](Nc3ncc(C4CC4)nn3)C2)nc1` [Example 167, 3-(6-(((1S,3S)-3-((6-Cyclopropyl-1,2,4-triazin-3-yl)amino)cyclopentyl)amino)pyridin-3-yl)-4-fluoro-2-methoxybenzoic acid], the pIC50 was less than 4.40 in experiment [1] and less than 5.00 in experiment [2].

As to `CN(C)c1cnc(N[C@H]2CC[C@H](Nc3ccc(-n4ccccc4=O)cn3)C2)nn1` [Example 256, 6′-(((1S,3S)-3-((6-(Dimethylamino)-1,2,4-triazin-3-yl)amino)cyclopentyl)amino)-2H-[1,3′-bipyridin]-2-one], the pIC50 in experiment [1] is less than 4.40; in experiment [2], 5.77; against PCSK9, 6.92.

As for `Cc1cnc(N[C@H]2CC[C@H](Nc3ccc(-n4nc(C)nc4C)cn3)C2)nn1` [Example 313, (1S,3S)—N^1-(5-(3,5-dimethyl-1H-1,2,4-triazol-1-yl)pyridin-2-yl)-N^3-(6-methyl-1,2,4-triazin-3-yl)cyclopentane-1,3-diamine], the results for the pIC50 (in experiment [1]; in experiment [2]; against PCSK9) were less than 4.40, less than 5.00 and 7.80, respectively.

As for `COc1cccc(F)c1-c1ccc(N[C@H]2CC[C@H](Nc3ncc(C)nn3)C2)nc1` [Example 308, (1S,3S)—N′-(5-(2-Fluoro-6-methoxyphenyl)pyridin-2-yl)-N^3-(6-methyl-1,2,4-triazin-3-yl)cyclopentane-1,3-diamine], the pIC50 in experiment [1] is 4.92; in experiment [2] it was less than 5.00; against PCSK9, 7.29.

On to `Cc1ccc(=O)n(-c2ccc(NCC(CCO)CNc3ncc(C)nn3)nc2)c1` (racemic) [Example 316, rac-6′-((4-Hydroxy-2-(((6-methyl-1,2,4-triazin-3-yl)amino)methyl)butyl)amino)-5-methyl-2H-[1,3′-bipyridin]-2-one], for which the pIC50 was less than 4.40 in experiment [1] and 5.13 against PCSK9.

In the case of `Cc1cnc(NCC(CCO)CNc2ccc(-n3c(=O)n(C)c4cccnc43)cn2)nn1` (racemic) [Example 319, rac-3-(6-((4-Hydroxy-2-(((6-methyl-1,2,4-triazin-3-yl)amino)methyl)butyl)amino)pyridin-3-yl)-1-methyl-1,3-dihydro-2H-imidazo[4,5-b]pyridin-2-one], the pIC50 in experiment [1] is less than 4.40; at PCSK9 it was 6.15.

In the case of `COc1cccc(F)c1-c1ccc(N[C@H]2CC[C@H](Nc3ncc(C4CC4)nn3)C2)nc1` [Example 54], the pIC50 in experiment [1] is 5.37; in experiment [2] it was less than 5.00.

For the molecule `Cc1cnc(NCC(CCO)CNc2ccc(-n3c(=O)n(C)c4ccccc43)cn2)nn1` (racemic) [Example 321, rac-1-(6-((4-Hydroxy-2-(((6-methyl-1,2,4-triazin-3-yl)amino)methyl)butyl)amino)pyridin-3-yl)-3-methyl-1,3-dihydro-2H-benzo[d]imidazol-2-one], the pIC50 in experiment [1] is less than 4.40; against PCSK9 it was 6.53.

In the case of `COc1c(C#N)ccc(F)c1-c1ccc(N[C@H]2CC[C@H](Nc3ncc(C4CC4)nn3)C2)nc1` [Example 168, 3-(6-(((1S,3S)-3-((6-Cyclopropyl-1,2,4-triazin-3-yl)amino)cyclopentyl)amino)pyridin-3-yl)-4-fluoro-2-methoxybenzonitrile], the pIC50 is 5.51 in experiment [1] and less than 5.00 in experiment [2].

`Cc1cnc(NCC(CCO)CNc2ccc(-n3c(=O)ccc4cccnc43)cn2)nn1` (racemic) [Example 320, rac-1-(6-((4-Hydroxy-2-(((6-methyl-1,2,4-triazin-3-yl)amino)methyl)butyl)amino)pyridin-3-yl)-1,8-naphthyridin-2(1H)-one]: the figures for the pIC50 (in experiment [1]; against PCSK9) were less than 4.40 and 6.25, respectively.

Take `Cc1cnc(NCC(CCO)CNc2ccc(-n3c(=O)ccc4ccccc43)cn2)nn1` (racemic) [Example 318, rac-1-(6-((4-Hydroxy-2-(((6-methyl-1,2,4-triazin-3-yl)amino)methyl)butyl)amino)pyridin-3-yl)quinolin-2(1H)-one]: the pIC50 in experiment [1] is less than 4.40; at PCSK9, 6.55.

Regarding `Fc1cccc(F)c1-c1ccc(N[C@H]2CC[C@H](Nc3ncc(C4CC4)nn3)C2)nc1` [Example 53], the pIC50 in experiment [1] was 5.47; in experiment [2] it was less than 5.00.
